Test system: C. pneumoniae strain AR-39 in HMEC-1 cells
Experiment: Assay for growth (infectivity) enhancing activity: C. pneumoniae inclusion counts in HMEC-1 cell culture
Type: cell-based
Settings: for enhancement of growth of C. pneumoniae strain AR-39 in HMEC-1 cells: added to culture medium at 1, 5 and 10 ng/mL, 3 days incubation
Experimental: To assay for growth enhancing activity, conditioned medium, fractions of conditioned medium, insulin-like growth factor-1 (IGF-1) and IGF-2 were tested in HMEC-1 cell culture for enhanced susceptibility to C. pneumoniae. HMEC-1 cells were trypsinized from stock cultures and plated to achieve a cell monolayer in 24 h in 24-well culture plates. A 12 mm diameter glass coverslip was placed in each well for growing cells for ease of staining for microscopic observation and counting inclusions for assaying titers. For inoculation of cell culture, the culture fluid was removed and the cell monolayer washed three times with Hank's balanced salt solution. Two-tenth mL of inoculum were added per well and the plate was centrifuged for 1 h at 700 to 800× g at 25° C. After centrifugation, the inocula were removed, 1 mL of specified culture medium was added, and the plates were incubated in a CO2 incubator at 35° C. for 3 days. After incubation, coverslips were removed, fixed with methanol and stained with a Chlamydia genus-specific monoclonal antibody conjugated with fluorescein isothiocyanate. Inclusions were counted in 30 random fields at ×400 magnification. The infectivity titers were expressed as inclusion forming units (ifus) per milliliter, which had been adjusted for dilution factor and inoculum size (Furness et al., J. Gen Micro. 23:213-9, 1960). Triplicate coverslips were counted in each experiment. Experiments were repeated 2 or 3 times.
Characterization of Chlamydial growth enhancing factors was carried out as follows. Conditioned medium of a one day old culture of U937 cells in RPMI supplemented with 2% fetal calf serum was used. Conditioned medium was heated at 70° C. for 2 h and tested for growth enhancing activity against AR-39 in HMEC-1 cells. An equal volume of conditioned medium was mixed with fresh endothelial basal medium containing 2% fetal calf serum for culturing infected HMEC-1 cells.
For determining molecular size, one day old conditioned medium of U937 cells cultured in serum-free macrophage culture medium was fractionated into molecular weight ranges of larger than 30,000, 30,000 to 10,000, 10,000 to 5,000 and smaller than 5,000 using three different pore size filters, Biomax-30, Biomax-10 and Biomax-5 ultrafilters (Millipore, Bedford, Mass.) with the molecular weight cut-off of 30,000; 10,000; and 5,000, respectively. For size fractionation, a starting volume of 200 mL of conditioned medium was used. Each fraction was concentrated to 2 mL (a 100× concentration). The remaining filtrate which had been passed through the 5,000 molecular weight pore size filter also was saved for testing. That fraction and the starting conditioned medium were tested without concentration. […]

Substance	enhancing activity (increase) (0.5 ng/mL, p<0.05, N=3)	enhancing activity (increase) (5 ng/mL, p<0.001)	enhancement of growth of C. pneumoniae strain AR-39 in HMEC-1 cells
insulin-like growth factor-2 [IGF-2]	35%	256%	enhanced the growth
insulin-like growth factor-1 [IGF-1]			not

Reference: US20030021782A1, “Chlamydia infection” (priority 2001, published 2003)
